Reference: ChEMBL document CHEMBL1201862, “PubChem BioAssay data set” (2004)
Active and inactive are the calls of the source.

What was measured:
Vero [1] = experiment: cells; type: functional; conditions: Chlorocebus sabaeus
[2] = molecular target: Dual specificity tyrosine-phosphorylation-regulated kinase 1A (Rattus norvegicus, UniProt Q63470); type: biochemical, Homo sapiens
[3] = molecular target: T1, Ubiquitin-conjugating enzyme E2 N (Homo sapiens, UniProt P61088); type: functional;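 also: Dose-response confirmation in a TR-FRET assay detecting UBC13-driven polyubiquitin chain formation, inhibition measured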
T1 sequence (P61088 whole entry): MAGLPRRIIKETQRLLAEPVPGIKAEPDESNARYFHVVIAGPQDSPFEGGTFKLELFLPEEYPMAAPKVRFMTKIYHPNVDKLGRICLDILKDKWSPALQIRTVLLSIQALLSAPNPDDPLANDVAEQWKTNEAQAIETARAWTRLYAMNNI

Cytochrome P450 1A2 = molecular target: T2, Cytochrome P450 1A2 (Homo sapiens, UniProt P05177);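 also: PubChem cytochrome P450 panel assay, CYP1A2 panel member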
T2 sequence (P05177 whole entry): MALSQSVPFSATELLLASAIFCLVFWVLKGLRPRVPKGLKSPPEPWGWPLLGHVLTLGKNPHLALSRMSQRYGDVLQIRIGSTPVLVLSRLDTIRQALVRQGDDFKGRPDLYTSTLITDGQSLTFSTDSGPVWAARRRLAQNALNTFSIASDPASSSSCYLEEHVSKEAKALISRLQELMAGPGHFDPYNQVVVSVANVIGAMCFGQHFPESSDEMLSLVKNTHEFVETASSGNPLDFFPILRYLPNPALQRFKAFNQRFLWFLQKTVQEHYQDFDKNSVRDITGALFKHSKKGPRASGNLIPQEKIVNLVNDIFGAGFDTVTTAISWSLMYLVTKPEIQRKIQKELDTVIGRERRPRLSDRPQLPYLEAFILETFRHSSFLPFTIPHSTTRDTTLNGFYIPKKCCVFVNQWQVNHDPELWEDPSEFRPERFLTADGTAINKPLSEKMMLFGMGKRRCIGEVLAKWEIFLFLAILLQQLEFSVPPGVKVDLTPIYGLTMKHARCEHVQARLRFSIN

[4] = molecular target: T3, Heat shock factor protein 1 (Mus musculus, UniProt P38532); experiment: inhibition of MG132-induced HSE-luciferase signal, confirmation, cell-based, NIH3T3, luminescence, dose retest (AID 2382); type: functional;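 also: NIH3T3 fibroblasts with HSF1-driven luciferase reporter stressed by proteasome inhibitor MG132; luminescence from HSF1-driven luciferase expression after 8 hours of MG132 stress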
T3 sequence (P38532 whole entry): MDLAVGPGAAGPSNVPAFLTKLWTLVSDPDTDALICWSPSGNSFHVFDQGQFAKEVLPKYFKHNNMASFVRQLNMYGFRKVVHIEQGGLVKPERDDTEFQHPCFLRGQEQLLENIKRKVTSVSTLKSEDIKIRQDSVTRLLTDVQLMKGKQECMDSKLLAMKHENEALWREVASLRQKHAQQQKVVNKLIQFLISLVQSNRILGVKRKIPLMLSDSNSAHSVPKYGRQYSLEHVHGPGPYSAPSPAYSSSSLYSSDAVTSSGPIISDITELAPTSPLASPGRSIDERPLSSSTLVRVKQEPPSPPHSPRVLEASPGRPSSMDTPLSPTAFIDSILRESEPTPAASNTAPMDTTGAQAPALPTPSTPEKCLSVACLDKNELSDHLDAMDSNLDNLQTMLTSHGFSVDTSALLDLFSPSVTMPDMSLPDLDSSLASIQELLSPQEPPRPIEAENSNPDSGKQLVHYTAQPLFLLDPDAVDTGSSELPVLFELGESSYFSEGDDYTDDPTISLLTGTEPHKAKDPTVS

[5] = HEp-2 cell cytotoxicity, dose response, cytotoxicity control for RSV inhibitor project, HTS (AID 2410); type: functional; conditions: human respiratory syncytial virus
[6] = molecular target: Delta-type opioid receptor (Homo sapiens, UniProt P41143); experiment: Counterscreen for agonists of heterodimerization of the mu 1 (OPRM1) and delta 1 (OPRD1) opioid receptors: Luminescence-based cell-based high throughput dose response assay to identify agonists of OPRD1 homodimerization. [Related pubchem assays (depositor defined):AID504326, AID504355, AID504692, AID504904, AID504905]; type: functional
Mu-type opioid receptor = Mu-type opioid receptor (Homo sapiens, UniProt P35372); experiment: Counterscreen for agonists of heterodimerization of the mu 1 (OPRM1) and delta 1 (OPRD1) opioid receptors: Luminescence-based cell-based high throughput dose response assay to identify agonists of OPRM1 homodimerization.; type: functional;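 also: U2OS cells expressing OPRM1 and beta-arrestin as split beta-galactosidase partners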
[7] = molecular target: 5-hydroxytryptamine receptor 5A (Homo sapiens, UniProt P47898); experiment: Counterscreen for agonists of OPRM1-OPRD1 heterodimerization: luminescence-based cell-based high throughput dose response assay to identify agonists of 5-hydroxytryptamine (serotonin) 5A receptor (HTR5A). [Related pubchem assays (depositor defined):AID504326, AID504355, AID504692, AID504904, AID504905]; type: functional
[8] = molecular target: T4, Polyadenylate-binding protein 1 (Homo sapiens, UniProt P11940); experiment: PABP1 MLLE–PAM2 binding inhibitor potency, dose response, biochemical, fluorescence polarization, FITC-PAM2 peptide (AID 602259); type: functional; conditions: read-out: IC50_Mean
[9] = molecular target: Heat shock protein HSP 90-alpha (Homo sapiens, UniProt P07900); type: functional, organism-based
[10] = molecular target: T4, Polyadenylate-binding protein 1; experiment: PABP1 MLLE–PAM2 interaction inhibitors, dose response, miRNA deadenylation inhibitor project, biochemical, fluorescence polarization, Cy5-PAM2 peptide, secondary (AID 602260); type: functional; conditions: read-out: IC50_Mean
Vero [11] = experiment: Vero cell cytotoxicity, cytotoxicity control for flavivirus capping enzyme inhibitors (AID 588742); type: functional; conditions: Chlorocebus sabaeus
Escherichia coli = experiment: microbe, parasite or virus in culture
[12] = molecular target: T5, Short transient receptor potential channel 4 (Mus musculus, UniProt Q9QUQ5); experiment: mouse TRPC4 channel activators, dose response, cell-based, HEK293 TRPC4/mu-opioid, Fluo-4 calcium (AID 434937); type: functional
T5 sequence (Q9QUQ5 whole entry): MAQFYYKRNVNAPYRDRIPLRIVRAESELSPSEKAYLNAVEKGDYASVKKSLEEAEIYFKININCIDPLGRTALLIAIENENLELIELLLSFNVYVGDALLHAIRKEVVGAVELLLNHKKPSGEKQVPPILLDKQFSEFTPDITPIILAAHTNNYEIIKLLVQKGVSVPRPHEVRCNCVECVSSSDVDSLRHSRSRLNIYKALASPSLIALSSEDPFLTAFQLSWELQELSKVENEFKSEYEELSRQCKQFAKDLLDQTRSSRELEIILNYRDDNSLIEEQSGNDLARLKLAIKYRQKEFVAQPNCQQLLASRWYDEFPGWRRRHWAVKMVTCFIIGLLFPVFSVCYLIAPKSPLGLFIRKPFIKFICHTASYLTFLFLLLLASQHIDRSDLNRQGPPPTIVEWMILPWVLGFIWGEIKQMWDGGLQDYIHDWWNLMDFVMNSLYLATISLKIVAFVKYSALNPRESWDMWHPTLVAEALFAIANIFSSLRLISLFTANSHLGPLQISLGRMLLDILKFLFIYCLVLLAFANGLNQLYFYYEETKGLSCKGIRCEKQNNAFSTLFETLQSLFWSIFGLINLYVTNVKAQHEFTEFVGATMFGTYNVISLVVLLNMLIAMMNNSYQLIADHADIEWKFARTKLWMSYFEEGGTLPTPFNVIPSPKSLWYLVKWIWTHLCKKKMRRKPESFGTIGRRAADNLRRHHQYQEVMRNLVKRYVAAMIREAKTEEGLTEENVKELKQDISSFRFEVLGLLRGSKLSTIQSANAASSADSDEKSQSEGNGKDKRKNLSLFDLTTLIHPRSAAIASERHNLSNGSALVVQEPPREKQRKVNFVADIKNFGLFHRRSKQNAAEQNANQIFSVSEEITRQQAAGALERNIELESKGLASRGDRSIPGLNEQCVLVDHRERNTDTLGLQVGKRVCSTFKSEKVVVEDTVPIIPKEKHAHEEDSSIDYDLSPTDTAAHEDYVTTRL

[13] = molecular target: Beta-2 adrenergic receptor (Homo sapiens, UniProt P07550); experiment: beta2AR agonists driving receptor internalization, dose response, cell-based, FAP fluorogen, flow cytometry, cherry pick 1 (AID 588763); type: functional
[14] = molecular target: T3, Heat shock factor protein 1; experiment: HSF1 potentiators in luciferase reporter cells, confirmation, cell-based, NIH3T3, luminescence, dose retest (AID 435004); type: functional;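 also: stress induced by proteasome inhibitor MG132 added 30 min after compound; luciferase reporter driven by HSF1 response element in NIH3T3 cells; actives raise luminescence as potentiators of the MG132 stress response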
[15] = microbe, parasite or virus in culture; type: functional; conditions: Mycobacterium tuberculosis
[16] = C. albicans growth with fluconazole, confirmation, fluorescence, retest (AID 2467); type: functional, cell-based
[17] = NIH-3T3 fibroblast cytotoxicity, dose response, cytotoxicity control, cell-based, fluorescence, Alamar Blue, secondary assay (AID 2327); type: functional;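 also: NIH-3T3 mouse fibroblasts cultured with fluconazole at 8 µg/mL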
BJ [18] = experiment: cells; type: functional, cell-based; conditions: Homo sapiens
BJ [19] = experiment: cytotoxicity toward Ras-transformed BJeLR fibroblasts, dose response, cell-based, alamar blue fluorescence, cherrypicked samples (AID 2631); type: functional; conditions: Homo sapiens;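 also: confirmatory dose-response assay in RAS-dependent BJ fibroblasts engineered with TERT, LT and ST, with cytotoxicity read by fluorescence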
BJ [20] = experiment: cytotoxicity toward BJ-TERT-LT-ST fibroblasts, dose response, cell-based, RAS-independent, luminescence (AID 1935); type: functional; conditions: Homo sapiens;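 also: BJ fibroblasts immortalized with TERT plus LT and ST oncogenes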
BJ [21] = experiment: cytotoxicity toward BJ-TERT fibroblasts, dose response, cell-based, RAS-independent, luminescence (AID 1933); type: functional; conditions: Homo sapiens
[22] = cytotoxicity toward DRD oncogenic fibroblasts, dose response, cell-based, non-viral oncogenic, luminescence (AID 1934); type: functional; conditions: Homo sapiens
Ion channel NompC = Ion channel NompC (Danio rerio, UniProt Q7T1G6); experiment: Fluorescence counterscreen assay for TRPML3 agonists: dose response cell-based high-throughput screening assay to identify agonists of the transient receptor potential channel N1 (TRPN1). [Related pubchem assays: 1526, 1424, 1448 ]; type: functional
Mucolipin-3 = molecular target: T6, Mucolipin-3 (Homo sapiens, UniProt Q8TDD5); experiment: Dose response cell-based high-throughput screening assay for agonists of the transient receptor potential channel ML3 (TRPML3). [Related pubchem assays: 1526, 1424, 1448 ]; type: functional
T6 sequence (Q8TDD5 whole entry): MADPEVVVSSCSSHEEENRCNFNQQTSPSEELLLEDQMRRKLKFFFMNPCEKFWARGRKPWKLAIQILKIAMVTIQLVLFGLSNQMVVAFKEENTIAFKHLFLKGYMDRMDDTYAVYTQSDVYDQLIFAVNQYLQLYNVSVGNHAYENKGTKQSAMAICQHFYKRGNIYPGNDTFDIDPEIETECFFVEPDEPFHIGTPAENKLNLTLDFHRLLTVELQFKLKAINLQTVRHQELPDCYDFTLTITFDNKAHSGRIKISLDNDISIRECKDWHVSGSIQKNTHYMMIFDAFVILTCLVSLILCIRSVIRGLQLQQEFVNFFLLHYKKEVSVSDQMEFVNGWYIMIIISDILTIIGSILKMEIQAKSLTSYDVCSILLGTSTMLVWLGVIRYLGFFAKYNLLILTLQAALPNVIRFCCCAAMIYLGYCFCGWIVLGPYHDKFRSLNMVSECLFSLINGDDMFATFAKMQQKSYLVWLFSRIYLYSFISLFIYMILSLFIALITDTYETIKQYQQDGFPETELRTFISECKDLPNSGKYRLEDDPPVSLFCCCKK

HEK293 [23] = experiment: cells; conditions: Homo sapiens
HEK293 [24] = experiment: cells; conditions: Homo sapiens; remark: listed apart in the source

5-hydroxytryptamine receptor 5A, sequence (P47898 whole entry): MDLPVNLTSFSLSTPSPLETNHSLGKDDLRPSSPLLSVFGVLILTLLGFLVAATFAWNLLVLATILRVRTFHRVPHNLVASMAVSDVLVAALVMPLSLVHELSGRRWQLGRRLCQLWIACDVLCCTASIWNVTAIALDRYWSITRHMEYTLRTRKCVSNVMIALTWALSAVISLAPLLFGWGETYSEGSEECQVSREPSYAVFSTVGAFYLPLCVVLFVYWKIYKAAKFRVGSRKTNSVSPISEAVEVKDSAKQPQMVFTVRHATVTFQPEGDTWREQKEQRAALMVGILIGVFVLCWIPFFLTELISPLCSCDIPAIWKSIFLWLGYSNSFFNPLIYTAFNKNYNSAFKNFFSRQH
Delta-type opioid receptor, sequence (P41143 whole entry): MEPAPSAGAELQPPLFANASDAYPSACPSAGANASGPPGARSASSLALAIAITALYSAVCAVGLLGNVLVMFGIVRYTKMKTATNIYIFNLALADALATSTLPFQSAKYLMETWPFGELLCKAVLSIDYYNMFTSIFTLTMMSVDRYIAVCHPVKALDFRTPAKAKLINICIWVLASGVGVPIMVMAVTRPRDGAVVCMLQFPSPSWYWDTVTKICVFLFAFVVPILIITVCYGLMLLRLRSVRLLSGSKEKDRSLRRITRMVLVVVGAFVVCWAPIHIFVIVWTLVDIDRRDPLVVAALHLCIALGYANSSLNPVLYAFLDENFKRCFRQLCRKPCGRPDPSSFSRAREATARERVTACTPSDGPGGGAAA
Mu-type opioid receptor, sequence (P35372 whole entry): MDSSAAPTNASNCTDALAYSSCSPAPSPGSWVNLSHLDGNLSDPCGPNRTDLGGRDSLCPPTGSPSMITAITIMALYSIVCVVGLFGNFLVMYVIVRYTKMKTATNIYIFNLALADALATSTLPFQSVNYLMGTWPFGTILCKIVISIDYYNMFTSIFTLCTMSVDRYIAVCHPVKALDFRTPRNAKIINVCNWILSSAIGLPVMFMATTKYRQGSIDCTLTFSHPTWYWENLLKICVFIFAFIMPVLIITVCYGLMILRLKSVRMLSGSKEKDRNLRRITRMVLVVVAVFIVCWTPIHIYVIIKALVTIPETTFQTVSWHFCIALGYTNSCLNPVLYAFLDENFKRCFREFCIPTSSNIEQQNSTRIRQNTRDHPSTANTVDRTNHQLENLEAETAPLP
Beta-2 adrenergic receptor, sequence (P07550 whole entry): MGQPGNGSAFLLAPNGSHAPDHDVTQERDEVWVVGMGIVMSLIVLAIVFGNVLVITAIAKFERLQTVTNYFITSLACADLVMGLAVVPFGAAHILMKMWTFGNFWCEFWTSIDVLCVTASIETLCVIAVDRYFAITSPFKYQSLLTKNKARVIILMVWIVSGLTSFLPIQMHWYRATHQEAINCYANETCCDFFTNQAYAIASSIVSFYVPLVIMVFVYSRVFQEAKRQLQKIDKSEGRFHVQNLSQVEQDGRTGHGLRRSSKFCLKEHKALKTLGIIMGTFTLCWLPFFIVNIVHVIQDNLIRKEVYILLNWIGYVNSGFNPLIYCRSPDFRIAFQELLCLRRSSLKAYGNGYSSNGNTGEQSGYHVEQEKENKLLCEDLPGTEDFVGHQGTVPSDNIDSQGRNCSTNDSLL
T4 sequence (P11940 whole entry): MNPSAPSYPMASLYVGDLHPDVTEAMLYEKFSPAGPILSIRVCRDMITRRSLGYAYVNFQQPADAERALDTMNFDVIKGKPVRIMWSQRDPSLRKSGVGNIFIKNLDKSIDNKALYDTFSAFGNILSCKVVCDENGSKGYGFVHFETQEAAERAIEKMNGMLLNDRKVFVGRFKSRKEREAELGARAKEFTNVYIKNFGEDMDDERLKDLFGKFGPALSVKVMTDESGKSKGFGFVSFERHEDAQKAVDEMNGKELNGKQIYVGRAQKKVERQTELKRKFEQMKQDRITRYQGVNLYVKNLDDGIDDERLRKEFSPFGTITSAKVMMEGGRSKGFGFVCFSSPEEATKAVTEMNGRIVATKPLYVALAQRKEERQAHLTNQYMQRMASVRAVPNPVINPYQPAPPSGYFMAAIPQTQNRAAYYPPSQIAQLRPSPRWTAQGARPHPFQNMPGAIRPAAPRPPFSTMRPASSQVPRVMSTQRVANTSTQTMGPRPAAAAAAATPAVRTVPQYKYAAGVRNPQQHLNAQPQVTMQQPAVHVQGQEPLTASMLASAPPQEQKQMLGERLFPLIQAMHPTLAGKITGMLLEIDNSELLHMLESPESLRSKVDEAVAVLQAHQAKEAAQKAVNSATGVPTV
Ion channel NompC, sequence (Q7T1G6 whole entry): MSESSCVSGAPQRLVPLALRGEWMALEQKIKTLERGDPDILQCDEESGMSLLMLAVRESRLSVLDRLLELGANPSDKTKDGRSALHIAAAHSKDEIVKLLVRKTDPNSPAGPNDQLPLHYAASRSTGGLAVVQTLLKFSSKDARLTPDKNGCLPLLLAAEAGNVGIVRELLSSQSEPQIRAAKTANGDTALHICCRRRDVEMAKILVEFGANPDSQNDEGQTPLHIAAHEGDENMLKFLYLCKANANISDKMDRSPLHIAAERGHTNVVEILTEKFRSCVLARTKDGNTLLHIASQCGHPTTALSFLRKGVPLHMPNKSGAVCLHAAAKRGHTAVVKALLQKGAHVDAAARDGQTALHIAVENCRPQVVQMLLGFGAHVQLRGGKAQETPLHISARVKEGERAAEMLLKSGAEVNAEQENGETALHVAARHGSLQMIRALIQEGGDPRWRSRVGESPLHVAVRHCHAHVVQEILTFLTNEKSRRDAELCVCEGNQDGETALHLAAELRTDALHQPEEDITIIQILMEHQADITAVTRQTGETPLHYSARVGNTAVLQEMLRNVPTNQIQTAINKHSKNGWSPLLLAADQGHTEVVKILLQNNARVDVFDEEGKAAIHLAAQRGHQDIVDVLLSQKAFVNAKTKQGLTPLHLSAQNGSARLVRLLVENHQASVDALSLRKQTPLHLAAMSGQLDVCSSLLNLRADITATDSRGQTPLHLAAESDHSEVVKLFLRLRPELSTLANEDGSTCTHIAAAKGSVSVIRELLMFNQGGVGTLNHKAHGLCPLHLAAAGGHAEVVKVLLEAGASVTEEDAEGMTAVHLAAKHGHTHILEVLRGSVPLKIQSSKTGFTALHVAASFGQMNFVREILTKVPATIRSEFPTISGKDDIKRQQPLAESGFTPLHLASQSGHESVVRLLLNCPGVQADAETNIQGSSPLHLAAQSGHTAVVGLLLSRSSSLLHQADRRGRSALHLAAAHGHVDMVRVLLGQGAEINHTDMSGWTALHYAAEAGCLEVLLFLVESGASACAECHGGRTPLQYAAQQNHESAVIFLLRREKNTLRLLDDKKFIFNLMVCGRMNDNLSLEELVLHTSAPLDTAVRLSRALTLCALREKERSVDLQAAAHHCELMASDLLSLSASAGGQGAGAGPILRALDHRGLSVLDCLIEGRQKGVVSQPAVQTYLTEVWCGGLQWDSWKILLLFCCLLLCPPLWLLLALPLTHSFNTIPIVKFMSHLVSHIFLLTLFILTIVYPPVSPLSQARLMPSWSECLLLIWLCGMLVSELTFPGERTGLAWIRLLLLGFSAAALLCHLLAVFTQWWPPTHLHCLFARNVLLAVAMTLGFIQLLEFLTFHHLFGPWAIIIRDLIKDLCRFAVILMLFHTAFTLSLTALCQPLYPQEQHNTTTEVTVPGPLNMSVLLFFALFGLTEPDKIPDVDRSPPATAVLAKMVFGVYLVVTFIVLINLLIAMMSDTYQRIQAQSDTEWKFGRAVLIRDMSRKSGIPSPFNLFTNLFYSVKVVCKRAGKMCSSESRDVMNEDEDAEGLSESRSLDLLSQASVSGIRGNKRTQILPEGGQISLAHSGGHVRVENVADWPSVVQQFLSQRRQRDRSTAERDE

Cc1cccc(Nc2cc(C)c3c(O)cccc3n2)c1C
CC50 (Vero [1]): > 25 µM (active)
AC50 [2]: 1.13 µM (active)
IC50 [3]: > 20 µM (inactive)

CC(C)c1ccc(NC(=O)N(CCc2nc3ccccc3[nH]2)C2CCCC2)cc1
AC50 (Cytochrome P450 1A2): 11.2 µM (inconclusive)
EC50 [4]: > 195 µM (not active)
CC50 [5]: 35.4 µM (active)
EC50 [6]: > 92.4 µM (inactive)
EC50 (Mu-type opioid receptor): > 92.4 µM (inactive)
EC50 [7]: > 92.4 µM (inactive)

COc1ccc2c3c(ccc2c1)C(O)=C(C=O)CC3
IC50 [8]: > 66 µM (inactive)
AC50 [9]: 2.94 µM (active)
AC50 [2]: 0.633 µM (active)
IC50 [10]: > 66 µM (inactive)
CC50 (Vero [11]): > 40 µM (active)

COc1ccc(S(=O)(=O)N2CCC(C(N)=O)CC2)cc1
AC50 (Escherichia coli): 38.3 µM (active)

CN(C)C(CNC(=O)Cc1ccc(Br)cc1)c1ccccc1 (stereo not given)
EC50 [12]: 0.105 µM (active)
EC50 [6]: 36.1 µM (inactive)
EC50 (Mu-type opioid receptor): > 92.5 µM (inactive)
EC50 [7]: > 92.5 µM (inactive)

CC(=O)Nc1ccc(-c2nnc(SCc3ccc(C)cc3)n2C)cc1
EC50 [13]: 3.6 µM (active)

O=C(CSc1nnc(-c2ccncc2)n1Cc1ccco1)N1c2ccccc2Sc2ccc(Cl)cc21
EC50 [13]: 0.343 µM (active)
EC50 [14]: 27.3 µM (active)

Cn1c(-c2c(N)n(CCc3ccccc3)c3nc4ccccc4nc23)nc2ccccc21
CC50 [15]: > 40 µM (active)
EC50 [6]: > 92.5 µM (inactive)
EC50 [16]: > 38 µM (not active)
EC50 (Mu-type opioid receptor): 24.8 µM (inactive)
EC50 [17]: > 160 µM (inactive)
EC50 [7]: > 92.5 µM (inactive)

COc1cc(NC(=O)C2CC(=O)NC3=C2C(=O)CC(C)(C)C3)c(OC)cc1Cl (stereo not given)
AC50 (Escherichia coli): 24.1 µM (active)

O=C(Cn1ccc(C(F)(F)F)n1)Nc1ccc(S(=O)(=O)NCc2ccco2)cc1
AC50 (Escherichia coli): 38.6 µM (active)

Nc1nc(CCl)nc(Nc2cccc3ccccc23)n1
EC50 (BJ [18]): 2.73 µM (inconclusive)
EC50 [4]: 3.74 µM (active)
EC50 (BJ [19]): 6.34 µM (active)
EC50 (BJ [20]): 9.87 µM (inconclusive)
EC50 (BJ [21]): 0.288 µM (active)
EC50 [22]: 1.98 µM (active)

COc1ccc(C(C)(C)C)cc1NC(=O)c1cc(S(=O)(=O)N(C)C)ccc1N1CCCC1
EC50 (Ion channel NompC): > 29.9 µM (not active)
EC50 (Mucolipin-3): > 29.9 µM (not active)
EC50 (HEK293 [23]): > 59.6 µM (inactive)
EC50 (HEK293 [24]): > 59.6 µM (inactive)
